MIC data for five molecules are collected here from DBAASP.

In brackets after ≈: the same amount, converted by molar mass. Several values for one entry are separate records, joined by “and”; a condition that tells them apart may be missing. Identical values can stand only once.

Some test systems named below: Escherichia coli D31; Listeria grayi DSM 20601; Acinetobacter baumannii; Escherichia coli; Klebsiella pneumoniae; Staphylococcus aureus; Streptococcus pyogenes; Streptococcus sp.
Common to all, as to experiment: ≥ marks a high value that may be exact or a test limit, other limits are often not marked, values filed in µg/mL are converted to µM
In experiment [1] the test system is Listeria fleischmannii DSM 24998.
Experiment [2] concerns Listeria monocytogenes DSM 20600.
For experiment [3], the system named is Micrococcus luteus DSM 20030.
Experiment [4] has as its system Staphylococcus aureus DSM 2569.
The subject of experiment [5] is Candida albicans ATCC 36232.
The subject of experiment [6] is Escherichia coli ATCC 2592.
Experiment [7] concerns Micrococcus luteus ATCC 9341.
Experiment [8] concerns Pseudomonas aeruginosa ATCC 9027.
Experiment [9] has as its system Staphylococcus aureus 1550.
Experiment [10] relates to Staphylococcus aureus ATCC 6538.
The test system of experiment [11] is Acinetobacter baumannii CCARM 12035.
Experiment [12] deals with Acinetobacter baumannii CCARM 12036.
In experiment [13] the test system is Acinetobacter baumannii KCTC 2508.
Experiment [14] relates to Bacillus subtilis KCTC 3028.
For experiment [15], the system named is Escherichia coli CCARM 1229.
In experiment [16] the test system is Escherichia coli CCARM 1238.
Experiment [17] concerns Escherichia coli KCTC 1682.
The test system of experiment [18] is Pseudomonas aeruginosa CCARM 2002.
Experiment [19] has as its system Pseudomonas aeruginosa CCARM 2095.
Experiment [20] has as its system Pseudomonas aeruginosa KCTC 1637.
For experiment [21], the system named is Salmonella typhimurium CCARM 8003.
For experiment [22], the system named is Salmonella typhimurium CCARM 8007.
In experiment [23] the test system is Salmonella typhimurium KCTC 1926.
The test system of experiment [24] is Staphylococcus aureus CCARM 3089.
Experiment [25] concerns Staphylococcus aureus CCARM 3108.
Experiment [26] deals with Staphylococcus aureus CCARM 3126.
The subject of experiment [27] is Staphylococcus aureus KCTC 1621.
Experiment [28] has as its system Staphylococcus epidermidis KCTC 1917.
Experiment [29] deals with Streptococcus mutans UA159.
Experiment [30] relates to Streptococcus sanguinis ATCC 10556.
In experiment [31] the test system is Streptococcus sobrinus ATCC 6715.
Experiment [32] has as its system Bacillus cereus KCTC 1012.
Experiment [33] relates to Bacillus subtilis KCTC 2217.
In experiment [34] the test system is Escherichia coli ATCC 25922.
Experiment [35] has as its system Klebsiella pneumoniae KCTC 2208.
Experiment [36] deals with Staphylococcus aureus ATCC 25923.
The subject of experiment [37] is Staphylococcus epidermidis.
Experiment [38] deals with Staphylococcus saprophyticus.

For the molecule `CC[C@H](C)[C@H](NC(=O)CNC(=O)[C@H](CO)NC(=O)[C@H](CC(C)C)NC(=O)[C@H](CC(C)C)NC(=O)[C@H](C)NC(=O)[C@H](CO)NC(=O)[C@H](Cc1ccccc1)NC(=O)[C@@H](N)Cc1ccccc1)C(=O)N[C@@H](CCCCN)C(=O)N[C@@H](CO)C(=O)N[C@@H](CC(C)C)C(=O)N[C@@H](Cc1ccccc1)C(N)=O` [FFSALLSGIKSLF], the MIC is 8 µM (≈ 11.4 µg/mL) with Escherichia coli D31; 4 µM (≈ 5.71 µg/mL) in experiment [1]; 15 µM (≈ 21.4 µg/mL) against Listeria grayi DSM 20601; 8 µM (≈ 11.4 µg/mL) in [2]; 8 µM (≈ 11.4 µg/mL) in experiment [3]; 15 µM (≈ 21.4 µg/mL) in experiment [4].
Consider `CC(C)[C@H](NC(=O)[C@H](CCCCN)NC(=O)[C@@H](NC(=O)[C@H](CCCCN)NC(=O)[C@H](Cc1ccccc1)NC(=O)[C@H](CCCCN)NC(=O)[C@@H](NC(=O)[C@H](CCCCN)NC(=O)[C@@H](N)Cc1ccccc1)C(C)C)C(C)C)C(=O)N[C@@H](CCCCN)C(=O)O` [FKVKFKVKVK], for which the MIC in [5] is 5 µM and 8 µM; in experiment [6] it was 10 µM (≈ 12.5 µg/mL); in [7], 4 µM (≈ 5 µg/mL); in experiment [8], 4.8 µM (≈ 6 µg/mL); in experiment [9], 8.8 µM (≈ 11 µg/mL); in [10], 7.2 µM (≈ 9 µg/mL).
As for `CC[C@H](C)[C@H](NC(=O)[C@H](C)NC(=O)[C@H](CCC(=O)O)NC(=O)[C@H](Cc1cnc[nH]1)NC(=O)[C@@H](NC(=O)[C@@H]1CCCN1C(=O)[C@H](CCC(N)=O)NC(=O)[C@H](Cc1ccccc1)NC(=O)[C@@H](NC(=O)[C@H](CCCCN)NC(=O)[C@H](CCCCN)NC(=O)[C@H](CC(C)C)NC(=O)[C@H](C)NC(=O)[C@H](CC(N)=O)NC(=O)[C@H](CC(C)C)NC(=O)CN)C(C)C)[C@@H](C)CC)C(=O)N[C@@H](CCCCN)C(=O)N[C@@H](CCCCN)C(=O)N[C@H](C(=O)N[C@@H](CC(N)=O)C(=O)N[C@@H](CC(N)=O)C(=O)N[C@@H](Cc1cnc[nH]1)C(=O)N[C@H](C(=O)N[C@@H](CCC(N)=O)C(=O)O)C(C)C)[C@@H](C)CC` [GLNALKKVFQPIHEAIKKINNHVQ], the MIC in [11] was 16 µM (≈ 43.8 µg/mL); in [12], 16 µM (≈ 43.8 µg/mL); in [13] it was 16 µM (≈ 43.8 µg/mL); in experiment [14] it was no less than 64 µM; in experiment [15] it was no less than 32 µM; in experiment [16], 16 µM (≈ 43.8 µg/mL). The MIC in experiment [17] stood at 16 µM (≈ 43.8 µg/mL); in experiment [18] it was 16 µM (≈ 43.8 µg/mL); in [19], 16 µM (≈ 43.8 µg/mL); in experiment [20], 8 µM (≈ 21.9 µg/mL); in experiment [21], 16 µM (≈ 43.8 µg/mL); in [22], 16 µM (≈ 43.8 µg/mL). The MIC in experiment [23] is 16 µM (≈ 43.8 µg/mL); in experiment [24] it was no less than 64 µM; in experiment [25], no less than 64 µM; in experiment [26], no less than 64 µM; in experiment [27], no less than 64 µM; in experiment [28], no less than 64 µM.
For `CC(C)[C@H](NC(=O)[C@H](CCCN=C(N)N)NC(=O)[C@H](C)NC(=O)[C@H](C)NC(=O)[C@H](CCCCN)NC(=O)[C@H](CCCCN)NC(=O)[C@H](Cc1ccccc1)NC(=O)[C@H](Cc1ccccc1)NC(=O)[C@H](CCCN=C(N)N)NC(=O)CNC(=O)[C@H](Cc1c[nH]c2ccccc12)NC(=O)CN)C(=O)NCC(=O)N[C@@H](CCCCN)C(=O)N[C@@H](CCCN=C(N)N)C(=O)N[C@H](C(=O)NCC(=O)N[C@@H](CCCCN)C(=O)O)C(C)C` [GWGRFFKKAARVGKRVGK], the MIC in experiment [29], in [30] and in experiment [31] was no less than 250 µM throughout.
As for `CC[C@H](C)[C@H](NC(=O)[C@H](Cc1ccccc1)NC(=O)[C@H](CCCCN)NC(=O)[C@H](CC(C)C)NC(=O)[C@H](C)NC(=O)[C@H](CO)NC(=O)[C@H](CC(C)C)NC(=O)[C@H](Cc1c[nH]c2ccccc12)NC(=O)[C@@H](N)C(C)C)C(=O)NCC(=O)N[C@@H](CCCCN)C(=O)N[C@@H](Cc1cnc[nH]1)C(=O)N[C@@H](CC(C)C)C(=O)N[C@@H](C)C(=O)N[C@@H](CCCCN)C(=O)N[C@@H](Cc1cnc[nH]1)C(=O)N[C@@H](CCC(N)=O)C(=O)N[C@@H](CC(C)C)C(=O)N[C@@H](CO)C(=O)N[C@@H](CCCCN)C(=O)N[C@@H](CC(C)C)C(N)=O` [VWLSALKFIGKHLAKHQLSKL], the MIC in experiment [13] is 2 µM (≈ 4.83 µg/mL); against Acinetobacter baumannii, 4.42 µM and 12.5 µM; in experiment [32], 2 µM (≈ 4.83 µg/mL); in [33] it was 1 µM (≈ 2.42 µg/mL); in experiment [34], 1 µM (≈ 2.42 µg/mL); against Escherichia coli it was 12.5 µM (≈ 30.2 µg/mL). Also, the MIC in [35] is 2 µM (≈ 4.83 µg/mL); against Klebsiella pneumoniae it was 50 µM (≈ 121 µg/mL); in experiment [36] it was 1 µM and > 0.5 µM; against Staphylococcus aureus, 3.1 µM and 1.41 µM; in [37], 3.1 µM (≈ 7.49 µg/mL); in experiment [38], 3.1 µM (≈ 7.49 µg/mL). In addition, the MIC in the experiment on Streptococcus pyogenes was no less than 50 µM; in the experiment with Streptococcus sp., 3.1 µM (≈ 7.49 µg/mL).

Usually MIC stands for the least concentration at which growth counts as inhibited.
